From patent US20100120778A1, “QUINOXALINE-BASED LXR MODULATORS” (Wyeth, priority 2008, published 2010)
Like-named read-outs stand apart in the source and are kept apart here.

Tests used:
human LXRβ = biological target: T1, human LXRβ (Homo sapiens, UniProt P55055); assay: Ligand-binding test procedure for human LXRβ (3H T0901317 tracer, flash plates); settings: biotinylated hLXRβ, tracer 3H T0901317, +4° C. over night
T1 construct: biotin (biotinylated); made in house; host or cells: E. coli
T1 sequence (P55055 1-460): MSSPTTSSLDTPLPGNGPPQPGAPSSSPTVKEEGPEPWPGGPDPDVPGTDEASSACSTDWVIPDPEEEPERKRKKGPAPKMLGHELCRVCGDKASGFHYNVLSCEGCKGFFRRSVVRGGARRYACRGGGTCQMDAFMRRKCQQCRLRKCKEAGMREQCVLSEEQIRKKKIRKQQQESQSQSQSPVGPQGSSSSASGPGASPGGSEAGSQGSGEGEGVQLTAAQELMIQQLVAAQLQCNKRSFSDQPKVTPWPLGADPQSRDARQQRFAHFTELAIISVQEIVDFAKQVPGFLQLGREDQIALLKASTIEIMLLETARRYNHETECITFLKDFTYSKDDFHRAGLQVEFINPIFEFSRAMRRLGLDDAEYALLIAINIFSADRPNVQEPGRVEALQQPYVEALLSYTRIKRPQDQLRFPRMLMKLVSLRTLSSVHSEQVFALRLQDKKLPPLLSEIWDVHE

[1] = test system: ABCA1 gene (regulation by LXR) in THP-1 cells; assay: Quantitative analysis of ABCA1 gene regulation in THP-1 cells (real-time RT-PCR); format: cell-based, human; settings: for Agonism ABCA1: LXR agonist reference at 1.0 uM as positive control; for EC50: Homo sapiens, read-out: EC50 ABCA1
Description: III. Quantitative Analysis of ABCA1 Gene Regulation In THP-1 Cells. The compounds of formula (I) effect on the regulation of the ABCA1 gene was evaluated using the following procedure. Materials and Methods Cell culture: The THP-1 monocytic cell line (ATCC # TIB-202) was obtained from American Type Culture Collection (Manassas, Va.) and cultured in RPMI 1640 medium (Gibco, Carlsbad, Calif.) containing 10% FBS, 2 mM L-glutamine, and 55 uM beta-Mercaptoethanol (BME). […] Louis, Mo.) for three days to induce differentiation into adherent macrophages. Differentiated THP-1 cells were treated with test compounds or ligands dissolved in DMSO (Sigma, D-8779) in culture medium lacking phorbal ester. […] Dose response effects were measured in duplicate, in the range of 0.001 to 30 micromolar concentrations and treated cells were incubated for an additional 18 hrs prior to RNA isolation. Unstimulated cells treated with vehicle were included as negative controls on each plate. […] L., J. Med. Chem. (2000), 45:1963-1966.). Results of antagonist analysis are expressed as % antagonism and IC50 (in μM). RNA isolation and quantitation: Total cellular RNA was isolated from treated cells cultured in 96-well plates using PrepStation 6100 (Applied Biosystems, Foster City, Calif.), according to the manufacturer's recommendations. RNA was resuspended in ribonuclease-free water and stored at -70° C. prior to analysis. RNA concentrations were quantitated with RiboGreen test procedure, #R-11490 (Molecular Probes, Eugene, Oreg.). Gene expression analysis: Gene-specific mRNA quantitation was performed by real-time PCR with the Perkin Elmer Corp. chemistry on an ABI Prism 7700 Sequence detection system (Applied Biosystems, Foster City, Calif.) according to the manufacturer's instructions. Samples (50-100 ng) of total RNA were assayed in duplicate or triplicate in 50 μl reactions using one-step RT-PCR and the standard curve method to estimate specific mRNA concentrations. Sequences of gene-specific primer and probe sets were designed with Primer Express Software (Applied Biosystems, Foster City, Calif.). The human ABCA1 primer and probe sequences are: forward, [NT], reverse, [NT], and probe, 6[…] and PCR reactions were performed according to PE Applied Biosystem's protocol for Taqman Gold RT-PCR or Qiagen's protocol for Quantitect probe RT-PCR. Relative levels of ABCA1 mRNA are normalized using GAPDH mRNA or 18S rRNA probe/primer sets purchased commercially (Applied Biosystems, Foster City, Calif.). Statistics: Mean, standard deviation and statistical significance of duplicate evaluations of RNA samples were assessed using ANOVA, one-way analysis of variance using SAS analysis.

human LXRα = biological target: T2, human LXRα (Homo sapiens, UniProt Q13133); assay: Ligand-binding test procedure for human LXRα (3H T0901317 tracer, flash plates); settings: biotinylated hLXRα, tracer 3H T0901317, +4° C. over night
T2 construct: biotin (biotinylated); made in house; host or cells: E. coli
T2 sequence (Q13133 1-447): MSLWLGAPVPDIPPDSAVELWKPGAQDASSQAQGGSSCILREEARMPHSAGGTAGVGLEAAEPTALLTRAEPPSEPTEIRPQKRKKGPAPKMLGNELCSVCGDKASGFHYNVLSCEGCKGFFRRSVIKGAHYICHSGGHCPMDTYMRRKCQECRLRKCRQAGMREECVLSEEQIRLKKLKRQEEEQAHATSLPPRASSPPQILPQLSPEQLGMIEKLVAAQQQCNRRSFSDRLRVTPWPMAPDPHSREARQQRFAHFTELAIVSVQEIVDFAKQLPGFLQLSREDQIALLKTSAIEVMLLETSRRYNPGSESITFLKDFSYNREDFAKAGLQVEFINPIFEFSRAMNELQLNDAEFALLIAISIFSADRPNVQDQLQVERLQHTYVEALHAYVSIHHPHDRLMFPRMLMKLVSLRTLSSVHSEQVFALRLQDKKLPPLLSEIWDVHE
Description: II. Ligand-Binding Test Procedure for Human LXRα.
Receptor source: E. coli extract from cells expressing biotinylated hLXRα. Extract was made in a similar buffer as above, but with 50 mM TRIS.
Washed streptavidin and coated flash plates with wash buffer. Diluted receptor extract to give Bmax˜4000 cpm and add to the wells. Wrapped the plates in aluminum foil and stored them at +4° C. over night.
Made a dilution series in DMSO of the test ligands. Made a 5 nM solution of the radioactive tracer in buffer. Mixed 250 μl diluted tracer with 5 μl of the test ligand from each concentration of the dilution series. Washed the receptor-coated flash plates. Added 200 μl per well of the ligand/radiolabel mixture to the receptor-coated flash plates. Wrapped the plates in aluminum foil and incubate at +4° C. over night.
Aspirated wells, and wash the flashed plates. Sealed the plate. Measured the remaining radioactivity in the plate.

[2] = Gene regulation by LXR (THP1), differentiated THP-1 cells, 18 hrs
[3] = Gene regulation by LXR (THP1), differentiated THP-1 cells, 18 hrs, ABCA1 mRNA

SMILES	IC50 (human LXRβ)	Agonism ABCA1 [1, 2]	EC50 [1, 3]	IC50 (human LXRα)	EC50 ([1]; THP-1, 18 h)
Cc1nc2c(C(F)(F)F)cccc2nc1-c1ccc(-c2cccc(S(C)(=O)=O)c2)cc1 [Example 1, 3-methyl-2-[3′-(methylsulfonyl)biphenyl-4-yl]-5-(trifluoromethyl)quinoxaline]	0.049 µM	79%	1.09 µM	0.752 µM	
Cc1nc2c(C(F)(F)F)cccc2nc1-c1cc(Oc2cccc(S(=O)(=O)CCCC#N)c2)ccc1Cl [Example 77, 4-[(3-{4-chloro-3-[3-methyl-5-(trifluoromethyl)quinoxalin-2-yl]phenoxy}phenyl)sulfonyl]-butanenitrile]	0.128 µM	45%	4.42 µM	0.405 µM	
CCS(=O)(=O)c1cccc(-c2ccc(-c3nc4cccc(C(F)(F)F)c4nc3C)cc2)c1 [Example 31, 2-[3′-(ethylsulfonyl)biphenyl-4-yl]-3-methyl-5-(trifluoromethyl)quinoxaline]		65%		0.265 µM	0.89 µM
CNS(=O)(=O)c1cccc(-c2ccc(-c3nc4cccc(C(F)(F)F)c4nc3C)cc2)c1 [Example 53, N-methyl-4′-[3-methyl-5-(trifluoromethyl)quinoxalin-2-yl]biphenyl-3-sulfonamide]		55%		> 1 µM	1.4 µM
